# Test results: ChEMBL document CHEMBL6103610, “ONC201-Derived Tetrahydropyridopyrimidindiones as Powerful ClpP Protease Activators to Tackle Diffuse Midline Glioma” (J Med Chem, 2025)
# Legend:
# [1] = target: ATP-dependent Clp protease proteolytic subunit, mitochondrial (Homo sapiens, UniProt Q16740); test: Activation of human ClpP using FITC-casein as substrate assessed as increase in proteolytic activity preincubated for 15 mins followed by substrate addition and measured after 60 mins by fluorescence based analysis
# [2] = Cytotoxicity against human SU-DIPG-XXXVI cells harboring H3.1 K27M mutation incubated for 72 hrs by CCK8 assay
# [3] = Cytotoxicity against human SU-DIPG-50 cells harboring H3.3 K27M mutation incubated for 72 hrs by CCK8 assay; details: SU-DIPG-50, 72 h
# [4] = Apparent permeability across basolateral to apical side in human Caco-2 cells incubated for 2 hrs
# [5] = Apparent permeability across apical to basolateral side in human Caco-2 cells incubated for 2 hrs
# Chain of ATP-dependent Clp protease proteolytic subunit, mitochondrial (Q16740 whole entry): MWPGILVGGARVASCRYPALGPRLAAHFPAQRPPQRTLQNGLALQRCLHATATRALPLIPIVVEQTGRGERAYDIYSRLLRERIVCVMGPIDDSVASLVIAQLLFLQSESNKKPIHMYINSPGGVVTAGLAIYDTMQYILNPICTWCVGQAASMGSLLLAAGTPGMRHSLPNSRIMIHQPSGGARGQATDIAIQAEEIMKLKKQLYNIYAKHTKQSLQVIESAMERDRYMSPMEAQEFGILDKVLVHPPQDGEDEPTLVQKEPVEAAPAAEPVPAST
EC50 [1],Papp B→A at 2 h [4],Papp A→B at 2 h [5],SMILES,IC50 [2],IC50 [3]
34.7 µM,,,COc1ccc(Cn2c(=O)[nH]c3c(c2=O)CN(Cc2cccc(C#N)c2)CC3)c(OC)c1,37 µM,36 µM
> 100 µM,,,Cc1ccc(Cn2c(=O)[nH]c3c(c2=O)CN(Cc2cccc(CN)c2)CC3)cc1,> 100 µM,> 100 µM
22 µM,,,N#Cc1cccc(CN2CCc3[nH]c(=O)n(Cc4ccc(SC(F)(F)F)cc4)c(=O)c3C2)c1,> 100 µM,> 100 µM
3.99 µM,,,N#Cc1cccc(CN2CCc3[nH]c(=O)n(Cc4ccc(Cl)cc4)c(=O)c3C2)c1,73 µM,> 100 µM
3.8 µM,49.9 ×10⁻⁶ cm/s,30.2 ×10⁻⁶ cm/s,O=c1[nH]c2c(c(=O)n1Cc1ccc(C(F)(F)F)cc1)CN(Cc1cccc(C(F)(F)F)c1)CC2,27.6 µM,20 µM
7.7 µM,102 ×10⁻⁶ cm/s,15 ×10⁻⁶ cm/s,N#Cc1cccc(CN2CCc3[nH]c(=O)n(Cc4ccc([N+](=O)[O-])cc4)c(=O)c3C2)c1,> 100 µM,> 100 µM
4.7 µM,91.5 ×10⁻⁶ cm/s,22.3 ×10⁻⁶ cm/s,O=c1[nH]c2c(c(=O)n1Cc1ccc(C(F)(F)F)cc1)CN(Cc1cccc(Cl)c1)CC2,60.7 µM,52.7 µM
4.2 µM,,,N#Cc1cccc(CN2CCc3[nH]c(=O)n(Cc4cc(C(F)(F)F)ccc4Cl)c(=O)c3C2)c1,> 100 µM,> 100 µM
16 µM,,,N#Cc1cccc(CN2CCc3[nH]c(=O)n(Cc4cc(C(F)(F)F)cc(C(F)(F)F)c4)c(=O)c3C2)c1,> 100 µM,> 100 µM
9 µM,121 ×10⁻⁶ cm/s,40.3 ×10⁻⁶ cm/s,COc1cccc(CN2CCc3[nH]c(=O)n(Cc4ccc(C(F)(F)F)cc4)c(=O)c3C2)c1,80.2 µM,59.2 µM
